Measured values from BindingDB's records for doi:10.1016/j.bmcl.2015.05.100 (Eli Lilly, 2015).

Experiments:
[1] = molecular target: Cyclin-dependent kinase 4 (Homo sapiens, UniProt P11802); assay: Inhibition of CDK4 (unknown origin) using GST-fused pRb (792 to 928) as substrate preincubated for 2 mins followed by [gamma-32P]-ATP addition measured after 15 mins by beta plate counting analysis
[2] = molecular target: Cyclin-dependent kinase 2 (Homo sapiens, UniProt P24941); assay: Inhibition of CDK2 (unknown origin) using GST-fused pRb (792 to 928) as substrate preincubated for 2 mins followed by [gamma-32P]-ATP addition measured after 15 mins by beta plate counting analysis

Cyclin-dependent kinase 4, sequence (P11802 whole entry, the tested form may be a part): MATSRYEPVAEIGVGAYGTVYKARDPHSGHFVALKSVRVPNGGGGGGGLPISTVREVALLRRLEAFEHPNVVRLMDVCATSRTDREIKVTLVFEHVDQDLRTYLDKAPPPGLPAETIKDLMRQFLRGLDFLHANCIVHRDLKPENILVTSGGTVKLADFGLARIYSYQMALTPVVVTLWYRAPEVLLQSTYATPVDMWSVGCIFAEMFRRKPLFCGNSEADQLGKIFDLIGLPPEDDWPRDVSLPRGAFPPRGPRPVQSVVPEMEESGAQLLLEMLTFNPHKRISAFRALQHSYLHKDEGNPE

Compound `O=c1c(Br)cc2cnc(Nc3ccc(N4CCNCC4)cc3)nc2n1C1CCCC1` has an IC50 [1] of 2 nM and an IC50 [2] of 43 nM.

With `Cc1c(Br)c(=O)n(C2CCCC2)c2nc(Nc3ccc(N4CCNCC4)cc3)ncc12` [6-bromo-8-cyclopentyl-5-methyl-2-{[4-(piperazin-1-yl)phenyl]amino}-7H,8H-pyrido[2,3-d]pyrimidin-7-one] the IC50 [2] was 439 nM.

`CC(=O)c1c(C)c2cnc(Nc3ccc(N4CCNCC4)cc3)nc2n(C2CCCC2)c1=O` [8-cyclopentyl-6-acetyl-5-methyl-2-{[4-(piperazin-1-yl)phenyl]amino}-7H,8H-pyrido[2,3-d]pyrimidin-7-one] was tested, and the IC50 [1] was 2 nM.
